From US20110151469A1, “INTERFERON EPSILON (IFNE1) AS A MARKER FOR TARGETED CANCER THERAPY” (PIRAMAL LIFE SCIENCES LIMITED, priority 2008, published 2011) come the findings set out here.

Molecules are shown by their SMILES.

Assay [1] has as its system IFNE1 mRNA in HL-60 cells. As to the kind of experiment: QRT-PCR of IFNE1 level in HL-60 cells treated with P276-00 or Flavopiridol. The assay is classed as cell-based, human. The conditions noted are these: at most time points (3, 6, 12, 24 hours). The protocol:
FIGS. 3A, 3B and 3C show expression of IFNE1 in different cancer cell lines treated with P276-00 and Flavopiridol. The different cell lines were treated with the agent for the indicated times and the level of IFNE1 mRNA were estimated using Real Time RT-PCR. Using the Actin gene for normalization, IFNE1 expression level was plotted as log fold change relative to the signal from the control untreated cells.
The expression of IFNE1 in response to P276-00 or Flavopiridol was also studied in different cancer cell lines such as HCT116, HL-60 (leukemia) and Calu-1. HCT116, Calu-1, H460 and HL-60 cells were obtained from ATCC and were maintained in culture medium with 10% fetal bovine serum. P276-00 and Flavopiridol were synthesized in-house and 10 mM stocks in DMSO were used for the assays. HCT116 (FIG. 3A) cells in culture were treated with P276-00 and Flavopiridol at 200 nM and 250 nM respectively for 6 hours, 12 hours and 24 hours. HL-60 (FIG. 3B) cells were treated with 300 nM of P276-00 and […] of Flavopiridol for 3 hours, 6 hours, 12 hours and 24 hours and Calu-1 (FIG. 3C) cells were treated with 1.2 μM of P276-00 and 450 nM of Flavopiridol for 4 hours, 8 hours, 12 hours, 24 hours and 48 hours. RNA was prepared from the samples and QRT-PCR was performed to estimate level of IFNE1.

The subject of assay [2] is IFNE1 mRNA in HCT116 cells. As to the kind of experiment: QRT-PCR of IFNE1 transcript level in HCT116 cells treated with CDK and non-CDK inhibitors. The following applies: 6 hours, P276-00 250 nM, Flavopiridol 200 nM, Fascaplysin 500 nM, Roscovitine 20 μM, Olomoucine 180 μM, DRB 50 μM, 5-Fluorouracil 800 nM, Camptothecin 30 nM, Etoposide 3 μM, Vinblastin 1.5 μM, Quercitin 750 nM, Paclitaxel 600 nM, Doxorubicin 100 nM. The assay is classed as cell-based, human. The protocol:
HCT116 cells were treated with various CDK inhibitors [P276-00 (250 nM), Flavopiridol (200 nM), Fascaplysin (500 nM), Roscovitine (20 μM), Olomoucine (180 μM), 5,6-dichloro-1-beta-D-ribofuranosylbenzimidazole (DRB, 50 μM)] and non-CDK inhibitors [5-Fluorouracil (800 nM), Camptothecin (30 nM), Etoposide (3 μM), Vinblastin (1.5 μM), Quercitin (750 nM), Paclitaxel (600 nM), Doxorubicin (100 nM)] for 6 hours. The level of IFNE1 mRNA was estimated using Real Time RT-PCR. Using Actin gene for normalization, relative IFNE1 expression level was plotted as log fold change.
To study if IFNE1 expression is a result of CDK inhibition, HCT116 cells were treated with a variety of CDK and non-CDK inhibitors and IFNE1 transcript level were measured using quantitative QRT-PCR. HCT116 cells were chosen for this assay because IFNE1 level seems to be most regulated in this cell line. The cells were treated with a variety of CDK inhibitors [P276-00 (250 nM), Flavopiridol (200 nM), Fascaplysin (500 nM), Roscovitine (20 μM), Olomoucine (180 μM), 5,6-dichloro-1-beta-D-ribofuranosylbenzimidazole (DRB) (50 μM)] and non-CDK inhibitors [5-Fluorouracil (800 nM), Camptothecin (30 nM), Etoposide (3 μM), Vinblastin (1.5 μM), Quercitin (750 nM), Paclitaxel (600 nM), Doxorubicin (100 nM)] for 6 hours and the IFNE1 transcript level were estimated. All inhibitors were purchased from Sigma and used at IC50 values described in literature.

For `CN1CC[C@@H](c2c(O)cc(O)c3c(=O)cc(-c4ccccc4Cl)oc23)[C@@H]1CO.Cl` [Compound P276-00, (+)-trans-2-(2-Chloro-phenyl)-5,7-dihydroxy-8-(2-hydroxymethyl-1-methyl-pyrrolidin-3-yl)-chromen-4-one hydrochloride], the “IFNE1 level relative to control untreated cells” value in assay [1] is listed as “significant increase”. Also, the “change of IFNE1 mRNA level” value in assay [2] was “upregulation”.

Take `CN1CC[C@H](c2c(O)cc(O)c3c(=O)cc(-c4ccccc4Cl)oc23)[C@H](O)C1` [Flavopiridol]: the “IFNE1 level relative to control untreated cells” value in assay [1] is reported as “significant increase”. Moreover, the “change of IFNE1 mRNA level” value in assay [2] is reported as “upregulation”.
